Test results reported in ChEMBL document CHEMBL1147894, “Amphiphilic polyether branched molecules to increase the circulation time of cationic particles” (Bioorg Med Chem, 2007).
Calls of active or inactive are those of the source. The calls are words filed in the database; no cut-off is given here.

Experiments:
[1] = tested on: B16; test: Decrease in transfection efficacy in […] B16 cells assessed by luciferase assay; type: functional, cell-based
[2] = species on record: Mus musculus; test: Biodistribution in C57BL/6 mouse blood after 30 mins; type: ADME, organism-based; settings: in vivo, 0.5 h

Activity [2] [%] | Compound | Activity [1]
8 | CCCCCCCCCCCCCCCCCCN(CCCCCCCCCCCCCCCCCC)C(=O)CNC(=O)CNC(=O)CNC(=O)OCC(COC(CO)CO)COC(CO)CO | Active
2.7 | CCCCCCCCCCCCCCN(CCCCCCCCCCCCCC)C(=O)CNC(=O)CNCCCN(CCCN)CCCN.Cl.Cl.Cl.Cl | 
